The results in this text go back to US10137185B2, “PAP peptide analogues” (THE NOTTINGHAM TRENT UNIVERSITY, priority 2014, dated 2018).

Test [1] concerns PBMCs from HLA-A2 positive patients with prostate cancer and individuals with benign disease. Briefly: IFNγ ELISPOT of PBMCs from prostate cancer patients and individuals with benign disease after peptide re-stimulation. Format: cell-based, human. As for the experimental part: FIG. 3. IFNγ response of peripheral blood mononuclear cells (PBMCs) isolated from patients with prostate cancer and individuals with benign disease after re-stimulation with PAP-115-123 epitope using an ELISPOT assay. Cryopreserved PBMCs from ten HLA-A2 positive prostate cancer patients and ten benign candidates were compared. The PBMCs were cultured in vitro with 5 μg of PAP-114-128 epitope for 7 days. The cells were then washed and rested overnight and 4×10^4 cells were added to each well of an ELISPOT plate. PAP-115-123 epitope peptide (1 μg) was added per well and cells cultured for 48 hours. The plates were then washed according to the manufacturer's protocol. PBMCs with no added peptide were used as control. Comparisons of means (±SEM) between groups (cells pulsed with PAP-115-123 or no peptide) are made using an unpaired t test.
FIG. 12. IFNγ responses generated by PBMCs isolated from 10 patients with prostate cancer and 10 individuals with benign disease after re-stimulation with the PAP-115-123 analogue epitope peptide, as determined using an ELISPOT assay. PBMCs were cultured in vitro with 5 μg of PAP-114-128 analogue epitope for 7 days. The cells were then washed and rested overnight, at which time and 4×10^4 cells were added to each well of an ELISPOT plate. PAP-115-123 analogue epitope peptide (1 μg) was added to each well and the cells were cultured for 48 hours. The plates were then washed according to the manufacturer's protocol. PBMCs cultured with no added peptide were used as the control. Comparisons of means (±SEM) between groups (PBMCs pulsed with PAP-115-123 analogue or no peptide) are made using an unpaired t test.
To determine the presence of circulating T cells specific for PAP-115-123 in humans, PBMCs from HLA-A2 positive patients with prostate cancer and individuals with benign disease were used. Cryopreserved PBMCs were thawed, washed and restimulated for 7 days with […] epitope peptide. The cells were then washed and rested overnight, at which time 4×10^4 cells were added to each well of an ELISPOT plate. PAP-115-123 epitope peptide (1 μg) was added to each well and the cells cultured for 48 hours. The plates were developed according to the manufacturer's instructions. PBMCs cultured with no peptide were used as controls. […] The number of IFNγ spots generated by PBMCs from one of the patients was as high as 220 (vs 60 spots for the control). The number of spots generated by PBMCs for the other 6 patients with prostate cancer ranged between 50 and 100 (vs 10-20 in controls). Although some of the PBMCs from individuals with benign disease generated 50-100 spots, the number of spots in the control wells was also high.
To determine the presence of circulating T cells specific for PAP-115-123 analogue peptide in humans, PBMCs from HLA-A2 positive patients with prostate cancer and individuals with benign disease were used. Cryopreserved PBMCs were thawed, washed and restimulated for 7 days with […] analogue epitope. The cells were then washed and rested overnight, at which time 4×10^4 cells were added to each well of an ELISPOT plate. 1 μg of PAP-115-123 analogue epitope was added to each well and cells were cultured for 48 hours. The plates were developed as per the manufacturer's instructions. PBMCs cultured with no peptide were used as control. […] The number of IFNγ spots in one of the patients was as high as 180 spots compared to control (54 spots). Similar response was also obtained when PBMCs were co-cultured with PAP-115-123 epitope (FIG. 3). The number of spots generated by PBMCs from the 6 patients with prostate cancer patients ranged between 50 and 100 (vs 10-20 in control wells). Although some of the samples from individuals with benign disease generated 50-100 spots, the number of spots in the control wells was also high.

Test [2] relates to PBMCs isolated from patients with prostate cancer. The test can be described thus: IFNγ ELISA of supernatants of PBMCs, Norway clinical trial. Format: cell-based, human. As for the experimental part: FIG. 8. Fold change in the IFNγ response generated by PBMCs isolated from patients with prostate cancer from the Norway Clinical Trial after re-stimulation with of PAP-115-123 epitope peptide (10 μg), as assessed using an ELISA. Patients that were reported to have responded to the treatment (p10, p12, p15, p19, p101, p102, p107, p108) are indicated by red bars. […] The cryopreserved PBMCs were washed and rested overnight, at which time 4×10^4 cells were added to each well of a 96 well plate. PAP-115-123 epitope peptide (10 μg) was added to each well and the plates cultured for 48 hours. Supernatants were harvested and analysed for IFNγ secretion.
Cryopreserved PBMCs were thawed, washed and rested overnight, at which time 4×10^4 cells were added to each well of an ELISPOT plate. PAP-115-123 epitope peptide (10 μg) was to each well and cells were cultured for 48 hours. The plates were developed according to the manufacturer's protocol. PBMCs cultured with HIV-derived peptide or no peptide were used as controls. A 2-4 fold higher PAP-115-123 specific IFNγ response was observed using PBMCs from 8 of the responder patients and 2-12 fold decreases in the IFNγ response was observed using PBMCs from 4 of the non-responder patients (FIG. 7). IFNγ secretion in these samples was confirmed by analysing harvested supernatants using an R&D Systems ELISA (FIG. 8). […]
Background: An ELISA detects its analyte on a solid surface through an enzyme-linked reagent.

SAMTNLAAL [PAP-115-123]: in test [1] (1 μg peptide, 4×10^4 cells per well, 10-20 in controls), the “number of spots, other 6 patients with prostate cancer” value was 50-100 spots. Besides, in test [1] (1 μg peptide, spots in control wells also high), the “number of spots, some PBMCs from individuals with benign disease” value was 50-100 spots. In addition, the “peptide-specific IFNγ response in samples from individuals with benign disease” value in test [1] (10 benign individuals, 1 μg peptide) is “no PAP-115-123 specific IFNγ response and none”. In addition, the “PBMC samples from patients with prostate cancer with peptide-specific IFNγ response” value in test [1] (of 10 samples, 7 days re-stimulation with the 15-mer, then 1 μg peptide, 48 hours, vs no peptide) was found to be 7. The “number of IFNγ spots, highest patient” value in test [1] (one prostate cancer patient, 1 μg peptide, 4×10^4 cells per well, 48 hours) amounted to 220 spots. Besides, in test [2] (10 μg peptide), the “fold lower IFNγ levels post vs pre vaccination, non-responders” value was 2-2.5 fold. Moreover, the “fold higher IFNγ levels post vs pre vaccination, responders” value in test [2] (all responders except p19, 10 μg peptide) was 1-1.5 fold.
